The values that follow are results of earlier work, collected in patent US10493089B2, “Solid composition comprising amorphous sofosbuvir” (priority 2014, dated 2019).

Each structure is given as a SMILES string.

As for `CC(C)OC(=O)[C@H](C)N[P@](=O)(OC[C@H]1O[C@@H](n2ccc(=O)[nH]c2=O)[C@](C)(F)[C@@H]1O)Oc1ccccc1` [sofosbuvir, (S)-isopropyl 2-(((S)-(((2R,3R,4R,5R)-5-(2,4-dioxo-3,4-dihydropyrimidin-1(2H)-yl)-4-fluoro-3-hydroxy-4-methyltetrahydrofuran-2-yl)methoxy)(phenoxy)phosphoryl)amino)propanoate], under “40° C., relative humidity 75%”, the “behaviour under stress conditions” value is on record as “deliquesces after a few hours”.

For the molecule `CC(C)OC(=O)[C@H](C)N[P@](=O)(OC[C@H]1O[C@@H](n2ccc(=O)[nH]c2=O)[C@](C)(F)[C@@H]1O)Oc1ccccc1` [Amorphous sofosbuvir], where the note is “amorphous form compared to crystalline forms”, the “relative humidity at which it deliquesces” value is given as “above 50%”.
